In the SangsterLogP compilation:
Residues, ends and D or L forms follow the SMILES beside them. *: point of attachment. Boc = CC(C)(C)OC(=O)*

Compound	logP	further results
Cc1[nH]ccc2c1[nH]c1cc(=O)ccc12		logD (pH 7.4): 2.18
Cc1nc([N+](=O)[O-])cn1COCCS(C)(=O)=O		logD (pH 7.4): -0.84
N=C(N)c1ccc(N)cc1		logD (pH 13.0): -0.49
ClC(Cl)C(Cl)(Cl)Cl	3.22	
CNc1c(Cl)cccc1Cl	2.91	
O=C1C(Cl)C(CCl)CN1c1cccc(C(F)(F)F)c1 (configuration not stated)	3.36	
CCCCn1cnc2c(NC(C)=O)ncnc21	0.55	
N#C/C=C/C#N	-0.25	
COc1c(C(C)C)cc(Cc2cnc(N)nc2N)cc1C(C)C		logD (pH 13.0): 3.47
c1ccc2c(c1)Oc1ccccc1S2	4.54	
CC(C)C(C)OCc1cn(C)c(C=NO)n1 (configuration not stated)	2.53	
FCC1CO1 (configuration not stated)	-0.16	
O=C(O)COc1ccc(N2Cc3ccccc3C2=O)cc1	3.58	
O=[N+]([O-])c1ccc(/C=C/c2ncc[nH]2)o1	1.32	
N#Cc1ccc(C#N)cc1	0.93	
COC(=O)CCCCCC(=O)OC	1.38	
Cc1cn([C@@H]2O[C@H](CO)[C@@H](O)[C@H]2O)c(=O)nc1N		logD (pH 7.0): -2.01
NC(=O)C(Cl)Cl	0.19	
C[C@@H]([C@H](O)c1ccccc1)N(C)C		logD (pH 11.0): 1.7
OCCCOc1cccc(CN2CCCCC2)c1		logD (pH 11.0): 2.78
CCCCOCN(C(=O)CCl)c1c(CC)cccc1CC	4.5	
CC#CC#CC	2.24	
COC(=O)C(C)(C)C	1.83	

Compound	logP	further results
S=C(N/N=C/c1ccc[nH]1)Nc1ccccc1	3.73	
NCCN1CCCC1		logD (pH 13.0): 0.08
CCCCCCOc1ccc(S(N)(=O)=O)cc1[N+](=O)[O-]		logD (pH 2.1): 3.03
CC(=O)c1ccc(N2CCCCC2)cc1		logD (pH 13.0): 3.13
CC(C)(C)NCC(O)COCC=Cc1ccccc1 (configuration not stated)	2.69	
CCC(C)OC(C)=O (configuration not stated)	1.72	
CC(C)(C)OC(=O)N[C@@H](Cc1ccccc1)C(=O)N[C@@H](Cc1ccc(O)cc1)C(=O)O (Boc-Phe-Tyr-OH)		logD (pH 1.0): 2.79
CCC(=O)N(C)C	-0.11	
Cn1c([N+](=O)[O-])cnc1C=NNC(N)=S		logD (pH 7.4): 0.65
COCCOc1ccccc1OCCOC	1.12	
CN(C)N=Nc1ccc(CCCC(=O)O)cc1	2.62	
O=C(O)/C=C/c1ccc([N+](=O)[O-])cc1		logD (pH 1.0): 2.12
C[C@]12CCC(=O)C=C1CC[C@@H]1[C@@H]2CC[C@@]2(C)[C@H]1CC[C@]2(O)[C@H](O)CO	2	
O=C1C=C(NCCO)C(=O)c2ccccc21	1.23	
Cc1ncc([N+](=O)[O-])n1CC(O)CCl (configuration not stated)		logD (pH 7.4): 0.58
OCCCO	-1.04	
C1=C(c2ccccc2)CCCC1	4.53	
Nc1ccc(Cl)c([N+](=O)[O-])c1	2.06	
NC(=O)Cc1cccs1	0.33	
COCC(C)OC (configuration not stated)	-0.09	
CCc1cccc(C)c1NC(=O)OC(C)C	2.52	
CC(=O)Oc1cccc2cccnc12		logD (pH 7.4): 2.03
CNc1nc2c3cccnc3ccc2n1C		logD (pH 7.4): 1.82

Compound	logP	further results
CCN(CC)C(=O)COC(=O)[C@@H](C)c1ccc2cc(OC)ccc2c1	3.32	
NC(=O)COc1ccccc1Cc1nc(N)cc(N)n1		logD (pH 13.0): -0.34
CCc1cccc2cccnc12		logD (pH 7.4): 2.93
CC(C)CN(C)CC(C)C	2.34	
Cn1c(N)nc2cc(C#N)ccc21	1.11	
CN(C)c1ccc2c(c1)C(=O)N(S(C)(=O)=O)C2=O	1.65	
Clc1ccc(C2(Cn3cncn3)OCC3(CCC4OC4C3)CO2)c(Cl)c1 (configuration not stated)		logD (pH 7.0): 1.87
CCN(CC)CCN		logD (pH 13.0): 0.21
CCn1cnc([N+](=O)[O-])n1	-0.23	
ICCCI	3.02	
S=c1nc(-c2ccccc2)[nH][nH]1		logD (pH 7.0): 1.84
CCOC(CC)(OCC)OCC		logD (pH 13.0): 1.97
Cn1c(N)nc2ccc(C#N)cc21	1.29	
CC(=O)N[C@@H](CC(C)C)C(=O)N[C@@H](CCCNC(=N)N)C(=O)N[C@@H](Cc1ccccc1)C(N)=O	-0.06	
CCN(CCO)c1ccccc1		logD (pH 7.4): 2.1
CN(C)C1=CC(=O)c2ccccc2C1=O	1.9	
CC(C)=NOCCOC(=O)[C@@H](C)Oc1ccc(Oc2cnc3cc(Cl)ccc3n2)cc1	4.6	
CCC12CCN(C)C(Cc3ccc(O)cc31)C2C (configuration not stated)	-1.14	
C1=C\C=C/C=C\C=C/1	3.08	
CCc1ccncc1	1.65	
Cn1cc2ccc([N+](=O)[O-])cc2n1		logD (pH 7.4): 1.76
CS(=O)(=O)N(c1ccccc1[N+](=O)[O-])S(C)(=O)=O	0.81	
Ic1ccc(I)cc1	4.11	

Compound	logP	further results
Cc1cc(=O)cc(C)o1	0.1	
O=[N+]([O-])c1cc(C(F)(F)F)ccc1NN=C(C(F)(F)F)C(F)(F)F		logD (pH 4.0): 4.8
CCC(=O)OC	0.82	
O=[N+]([O-])c1cc(C(F)(F)F)cc([N+](=O)[O-])c1NN=C(C(F)(F)F)C(F)(F)F		logD (pH 4.0): 3.6
c1ccc(N2CCNCC2)cc1		logD (pH 13.0): 1.11
ON=Cc1nnc(-c2ccccc2)o1	2.03	
O=C(N/N=C/c1ccc[nH]1)Nc1ccccc1	2.96	
CCC(C)C(C)(C)C(N)=O (configuration not stated)	1.81	
CC(=O)C1CC1	0.49	
CC(C)N(C)/N=N/c1ccc(C(N)=O)cc1		logD (pH 6.3): 2.02
O=S(=O)(CCl)c1ccccc1	1.24	
O=C(N/N=C/c1ccco1)Nc1ccccc1	2.52	
CS(=O)c1ccc2c(c1)C(c1ccccc1)=NCC(=O)N2 (configuration not stated)		logD (pH 7.4): 0.8
O=S1(=O)OCC2C(CO1)C1(Cl)C(Cl)=C(Cl)C2(Cl)C1(Cl)Cl (configuration not stated)	3.66	
O=C(O)Cc1ccccc1Nc1c(F)cccc1F	3.57	
OCCCCl	0.5	
Cc1ccncn1	0.16	
Cc1[nH]oc(=O)c1/N=N/c1ccccc1Cl	2.6	
Fc1cccc(F)n1	1.17	
COc1cccc(OC)c1Cc1cnc(N)nc1N		logD (pH 13.0): 1.7
CC(C)(C)NCC(O)COCCCc1ccccc1 (configuration not stated)	2.58	
S=C(N/N=C/c1ccco1)Nc1ccccc1	3.13	
C[C@H](NC(=O)N(CCCl)N=O)C(=O)O	0.78	

Compound	logP	further results
CN(C)O	-1.15	
Cc1cc(C)c2c(c1)C(c1ccccc1)=NCC(=O)N2		logD (pH 7.4): 2.94
ClCC#CCCl	2.01	
C#CCn1ncc2cc([N+](=O)[O-])ccc21		logD (pH 7.4): 0.52
CC(C)(C)c1ccc(N)cc1		logD (pH 7.4): 2.7
CC(C(=O)O)c1ccc(N2C(=O)C3CC=CCC3C2=O)cc1 (configuration not stated)	2.27	
N#CC#N	0.07	
C[C@H](C(=O)O)c1ccc(N2Cc3ccccc3C2=O)cc1	2.89	
O=C(NCCO)C(F)(F)Cn1cnc([N+](=O)[O-])n1	-0.77	
O=[N+]([O-])c1cc(C(F)(F)F)cc([N+](=O)[O-])c1NN=CC(F)(F)F		logD (pH 4.0): 2.8
Cc1cc(CCCCCCCOc2ccc(C3=NCCO3)cc2)on1		logD (pH 7.4): 4.79
CCNC(=O)c1ccco1	0.61	
CC(=NNc1ccc([N+](=O)[O-])cc1[N+](=O)[O-])C(F)(F)F		logD (pH 4.0): 3.3
CCOC(=O)Nc1cccc(OC(=O)Nc2ccccc2)c1	3.39	
CCOC(=O)CCCOc1ccc(Cl)cc1C	4.26	
COc1ccc(S(C)(=O)=O)cc1	0.76	
Cn1c(=O)sc2ccccc21	1.98	
Nc1nc(=O)n([C@H]2CC[C@@H](CO)O2)cc1I		logD (pH 7.0): -0.31
O=CN1CCCC1	-0.32	
N#CCc1ccc([N+](=O)[O-])cc1	1.37	
Cn1c([N+](=O)[O-])cnc1COc1ccc(Cl)cc1		logD (pH 7.4): 1.8
COc1cccc2ccccc12	3.63	
Clc1cc(Cl)c2c(Cl)ccc(Cl)c2c1	5.76	

Compound	logP	further results
O=C(O)Cc1csc(-c2ccc(Cl)cc2)n1	3.29	
O=C(O)CCC(=O)c1ccc(N2Cc3ccccc3C2=O)cc1	1.92	
CC(C)(C)C(O)(CCc1ccc(Cl)cc1)Cn1cncn1 (configuration not stated)	3.7	
Cc1nn(C)c(OCC(=O)c2ccccc2)c1C(=O)c1ccc(Cl)cc1Cl	3.69	
CCCC(=O)OC	1.29	
CCC(C)Cl (configuration not stated)	2.33	
Cn1c(N)nc2ccccc21	0.95	
Cn1cccn1	0.23	
CC(C)c1ccc([N+](=O)[O-])cc1		logD (pH 7.4): 3.45
CC12CC(O)C3C(CCC4(O)CC(O)CC(O)C34CO)C1(O)CCC2C1=CC(=O)OC1 (configuration not stated)	-0.02	
CCOC(=O)CCN(Cc1ccccc1)SN(C)C(=O)ON=C(C)SC	3.43	
COc1ccccc1NC(=O)Nc1ccccc1OC	2.98	
CCOC(=O)N[C@H]1CCc2cc(OC)c(OC)c(OC)c2-c2ccc(OC)c(=O)cc21		logD (pH 7.0): 1.3
CC(=O)Nc1nccs1	0.76	
O=[N+]([O-])c1ccccc1CO	1.24	
CSc1nc2nc(Cl)ccc2[nH]1	2.39	
CC1=C(C(=O)O)N2C(=O)C(NC(=O)C(O)c3ccccc3)C2SC1 (configuration not stated)		logD (pH 3.5): 0.46
CSc1ncc([N+](=O)[O-])n1C		logD (pH 7.4): 0.94
CNC(=O)Oc1cccc2c1OC(C)(C)O2	1.7	
N#Cc1cccc(C#N)c1	0.8	
CNC1=C(N2CC2)C(=O)C(NC)=C(N2CC2)C1=O	0.13	
CC(C)C(C)C	3.42	
COC=O	0.03	

Compound	logP	further results
CC(C=CC1=C(C)CCCC1(C)C)=CC=CC(C)=CC(=O)O		logD (pH 1.0): 6.3
CCC(C)C#N (configuration not stated)		logD (pH 1.0): 1.1
CN(C(F)(F)F)S(=O)(=O)CCCn1ccnc1C=NO		logD (pH 7.4): 1.77
CC1=C(/C=C/C(C)=C/C=C/C(C)=C/CO)C(C)(C)CCC1	5.68	
CS(C)(=O)=O	-1.34	
Cc1cc2ccccc2cn1	2.68	
CC(C)(C)NC(=O)[C@H]1CC[C@H]2[C@@H]3CC[C@H]4NC(=O)C=C[C@]4(C)[C@H]3CC[C@]12C	3.03	
N#CCc1cccc(Oc2ccccc2)c1	3.03	
Cc1ccccc1CO	1.58	
OCCNCc1ccccc1		logD (pH 13.0): 0.79
CC(C(=O)O)c1ccc(N2C(=O)C3CCCCC3C2=O)cc1 (configuration not stated)	2.37	
CC(=O)OC[C@H]1O[C@@H](n2ncc(=O)[nH]c2=O)[C@H](OC(C)=O)[C@@H]1OC(C)=O	-0.2	
O=[N+]([O-])c1ccc(Nc2ccccc2)cc1	3.74	
CNC(=O)c1ccoc1	0.34	
c1ccc(-c2cnc(-c3ccccc3)o2)cc1	4.67	
CC(=O)C(C)(C)C	1.2	
C#CCN		logD (pH 13.0): -0.43
CC(C)Cn1c(=O)n(C)c(=O)c2[nH]c(CCN3CCN(C(c4ccc(F)cc4)c4ccc(F)cc4)CC3)nc21		logD (pH 7.4): 4.16
N#Cc1cccc(C=O)c1	1.18	
